Our source for the IC50 values is patent US20190100553A1, “DIRECT ACTIVITY ASSAYS AND COMPOSITIONS FOR NUCLEOTIDE POOL SANITIZING ENZYMES” (priority 2016, published 2019).

As usually defined, the IC50 is the midpoint of a concentration-inhibition curve.

The assay addresses T1, MTH1 (Homo sapiens, UniProt P36639).
T1 construct: Human MTH1 full length protein purchased from Abcam (Cambridge, USA); purchased Abcam
Briefly: MTH1 inhibitor IC50 determination by two-tube OGAL probe assay. The following applies: 40 μM OGAL, read-out: apparent IC50. Format: biochemical.

Description: Inhibitory concentration (IC50) values were determined by the two-tube OGAL probe assay. The reaction buffer contained: 50 mM NaCl, 10 mM Tris-HCl (pH 7.9), 10 mM MgCl2, 1 mM DTT, 40 μM OGAL nucleotides, and varied concentrations of inhibitors. After 15 min incubation at 30° C., 5 μL of this reaction solution was added to 95 μL luciferase reaction solution in a 96 well plate to measure ATP signals. All the reactions were performed as three replicates. The IC50 was calculated using GraphPad Prism software.

For the molecule `Nc1ncnc2c1c(-c1cccc(OCc3ccccc3)c1)cn2C1CC(CN2CCC2)C1` (stereo not shown) [NVP-AEW541], the concentration for half-maximal inhibition (IC50) is 1900 nM.
